The test system of assay [1] is phosphatidylserine (PS)-containing liposomes (PC/PS vesicles). Put plainly: Liposome binding assay (Trp-to-dansyl FRET) with large unilamellar vesicles. Set-up: key to Liposome binding assay: “Y” means PS-selective (or apoptotic cell-specific) binding is observed; N means no or insignificant membrane binding is observed; “Nonselective” refers to membrane binding independent on PS. The settings on record: for Liposome binding assay: dansyl FRET assay; for binding to lipid vesicles of either composition: vesicles with and without PS; for binding to PC/PS liposomes (sensitized dansyl emission at 520 nm): PC/PS vesicles; for PS-selective binding in the presence of cholesterol: cholesterol-containing liposomes with PS vs without PS. How it is done: The binding of cLac to lipid membrane can be analyzed by any method known it the art. For example, by the fluorescence assay (Trp-to-dansyl FRET) described herein. Basically, large unilamellar vesicles (100 nm in diameter) were prepared with phosphatidylcholine (PC) and varied percentages of PS. All vesicles contained 5% dansyl-labeled PE to serve as a reporting group. The peptide-vesicle binding was monitored by the fluorescence resonance energy transfer (FRET) from Trp to the dansyl group. Emission of sensitized dansyl is monitored at 520 nm and Trp emission is monitored near 350 nm. Membrane binding of cLac to the PC/PS vesicles produces a sensitized dansyl emission at 520 nm with a concurrent decrease of Trp emission near 350 nm.
The peptide-membrane binding was evaluated via a fluorescence assay: large unilamellar vesicles (100 nm in diameter) were prepared with PC and varied percentages of PS. All vesicles contained 5% dansyl-labeled PE to serve as a reporting group. The peptide-vesicle binding was monitored by the fluorescence resonance energy transfer (FRET) from Trp to the dansyl group.

Assay [2] deals with apoptotic HeLa and Jukat cells (STS or CPT treated). Put plainly: Cell imaging of apoptotic cells by epifluorescence microscopy. The settings on record: for Cell imaging: standard epifluorescence microscopy. Details: key to Cell imaging: “Y” means PS-selective (or apoptotic cell-specific) binding is observed; N means no or insignificant membrane binding is observed; “Nonselective” refers to membrane binding independent on PS. Type of assay: cell-based, human. The method, then:
The fluorescent derivative was tested for its potential to stain apoptotic cells. Cultured HeLa and Jukat cells were treated with the potent apoptogen staurosporine (STS) or camptothecin (CPT) respectively to trigger apoptosis. The experimental conditions were optimized with the FITC-labeled annexin V and the membrane impermeable DNA intercalator propidium iodine (PI). The treatment with 0.1 μM STS or CPT for 4 hours gave a large population of early apoptotic cells (data not shown), which were stained with annexin, but not PI. This indicates increased presence of PS exposure on the outer membrane leaflet of the cells experiencing early apoptosis. […] As negative controls, both fluorescein alone as well as the FITC-labeled linear precursor of cLac were used to label the apoptotic cells and tested for fluorescence staining. […] This observation is consistent with the previous reports that annexin V preferentially binds to cells at the early stages of apoptosis. Since these early apoptotic cells hold their membrane integrity (PI negative), it is believed cLac2-Fl stained the cells by binding to their outer surfaces, presumably to PS.

The record followed here is US9133245B2, “Cyclic lactadherin peptide mimetics and their uses” (TRUSTEES OF BOSTON COLLEGE, priority 2011, dated 2015).

“Also recorded” adds a separate entry of the source. Non-standard residues stand in square brackets, D forms with d. No end group written: not given here. Bip = N[C@@H](Cc1ccc(-c2ccccc2)cc1)C(=O)O

“Lac-1R: cLac variant peptide, SEQ. ID. NO. 36 (GGGRGQIHGWD)”: the Liposome binding assay entry in assay [1] is given as “N”.
Same read-out and setting: the result for “WBipGHIQAGRGGGD (cyclo(W[Bip]GHIQAGRGGGD); SMILES CC[C@H](C)[C@@H]1NC(=O)[C@H](Cc2c[nH]cn2)NC(=O)CNC(=O)[C@H](Cc2ccc(-c3ccccc3)cc2)NC(=O)[C@H](Cc2c[nH]c3ccccc23)NC(=O)[C@H](CC(=O)O)NC(=O)CNC(=O)CNC(=O)CNC(=O)[C@H](CCCNC(=N)N)NC(=O)CNC(=O)[C@H](C)NC(=O)[C@H](CCC(N)=O)NC1=O) [cLac-A1]” reads “Y”; that for “WBipGHIQGGRGGAD (cyclo(W[Bip]GHIQGGRGGAD); SMILES CC[C@H](C)[C@@H]1NC(=O)[C@H](Cc2c[nH]cn2)NC(=O)CNC(=O)[C@H](Cc2ccc(-c3ccccc3)cc2)NC(=O)[C@H](Cc2c[nH]c3ccccc23)NC(=O)[C@H](CC(=O)O)NC(=O)[C@H](C)NC(=O)CNC(=O)CNC(=O)[C@H](CCCNC(=N)N)NC(=O)CNC(=O)CNC(=O)[C@H](CCC(N)=O)NC1=O) [cLac-A5]”, “Y”; that for “WBipGHIQGARGGGD (cyclo(W[Bip]GHIQGARGGGD); SMILES CC[C@H](C)[C@@H]1NC(=O)[C@H](Cc2c[nH]cn2)NC(=O)CNC(=O)[C@H](Cc2ccc(-c3ccccc3)cc2)NC(=O)[C@H](Cc2c[nH]c3ccccc23)NC(=O)[C@H](CC(=O)O)NC(=O)CNC(=O)CNC(=O)CNC(=O)[C@H](CCCNC(=N)N)NC(=O)[C@H](C)NC(=O)CNC(=O)[C@H](CCC(N)=O)NC1=O) [cLac-A2]”, “Y”.
On the same count and under the same terms, the result for “Lac-Tph: cLac variant peptide, SEQ. ID. NO. 39 (WFGHIQGGRGGGD)” reads “Nonselective”.
On the same count and under the same terms, the result for “cLac-A4: alanine for glycine linker variant G11A, SEQ. ID. NO. 41 (WFGHIQGGRGAGD; cyclic)” reads “N”.
Take “cLac-1: first cyclic lactadherin mimetic with Trp and Phe as membrane insertion motif, SEQ. ID. NO. 38 (WFGHIQGGRGGGD; cyclic)”: the “binding to lipid vesicles of either composition” value in assay [1] (FRET) was “no binding”. The Liposome binding assay entry in assay [1] is given as “N”.
As for “DWBipGHIQGGRGGG (DW[Bip]GHIQGGRGGG; not fully specified) [cLac-linear, ID; NO; 43]”, the “binding to lipid vesicles of either composition” value in assay [1] (FRET) is recorded as “binds to neither type of vesicle”. Also, the Liposome binding assay entry in assay [1] is “N”. Also, the Cell imaging result in assay [2] was “N”.
With “WBipGHIQGGRGGGGD (cyclo(W[Bip]GHIQGGRGGGGD); SMILES CC[C@H](C)[C@@H]1NC(=O)[C@H](Cc2c[nH]cn2)NC(=O)CNC(=O)[C@H](Cc2ccc(-c3ccccc3)cc2)NC(=O)[C@H](Cc2c[nH]c3ccccc23)NC(=O)[C@H](CC(=O)O)NC(=O)CNC(=O)CNC(=O)CNC(=O)CNC(=O)[C@H](CCCNC(=N)N)NC(=O)CNC(=O)CNC(=O)[C@H](CCC(N)=O)NC1=O) [cLac-24G]”, in assay [1], the Liposome binding assay entry was “Y”.
The same measure, in the same setting: the result for “Lac-2: cLac variant peptide, SEQ. ID. NO. 37 (WGHIQGGRGGGD)” reads “N”.
With “WBipGHIQGGRGGGGGD (cyclo(W[Bip]GHIQGGRGGGGGD); SMILES CC[C@H](C)[C@@H]1NC(=O)[C@H](Cc2c[nH]cn2)NC(=O)CNC(=O)[C@H](Cc2ccc(-c3ccccc3)cc2)NC(=O)[C@H](Cc2c[nH]c3ccccc23)NC(=O)[C@H](CC(=O)O)NC(=O)CNC(=O)CNC(=O)CNC(=O)CNC(=O)CNC(=O)[C@H](CCCNC(=N)N)NC(=O)CNC(=O)CNC(=O)[C@H](CCC(N)=O)NC1=O) [cLac-25G]”, the Liposome binding assay result in assay [1] is recorded as “Y”.
The same measure, in the same setting: the result for “cLac-A3: alanine for glycine linker variant G10A, SEQ. ID. NO. 40 (WFGHIQGGRAGGD; cyclic)” reads “N”; that for “Lac-1: cLac variant peptide, SEQ. ID. NO. 35 (WGHIQGRGGGD)”, “N”.
For WBipGHppGQGGRGGGD [cLac-PPG-0], the “binding to PC/PS liposomes (sensitized dansyl emission at 520 nm)” value (“binding to PC/PS liposomes” below) in assay [1] (FRET) is “selective binding”. For the same molecule, in assay [1], the “PS-selective binding in the presence of cholesterol” value (“PS-selective binding” below) was “selective binding” and the Liposome binding assay result is “Y”. The Cell imaging entry in assay [2] is given as “Y”.
“D-WBipGHIQGGRGGGD (cyclo([dW][Bip]GHIQGGRGGGD); SMILES CC[C@H](C)[C@@H]1NC(=O)[C@H](Cc2c[nH]cn2)NC(=O)CNC(=O)[C@H](Cc2ccc(-c3ccccc3)cc2)NC(=O)[C@@H](Cc2c[nH]c3ccccc23)NC(=O)[C@H](CC(=O)O)NC(=O)CNC(=O)CNC(=O)CNC(=O)[C@H](CCCNC(=N)N)NC(=O)CNC(=O)CNC(=O)[C@H](CCC(N)=O)NC1=O) [cLac-D-Trp]”: the Liposome binding assay result in assay [1] was “Y”.
On the same count and under the same terms, the result for “WBipGHIQGGGRGGGD (cyclo(W[Bip]GHIQGGGRGGGD); SMILES CC[C@H](C)[C@@H]1NC(=O)[C@H](Cc2c[nH]cn2)NC(=O)CNC(=O)[C@H](Cc2ccc(-c3ccccc3)cc2)NC(=O)[C@H](Cc2c[nH]c3ccccc23)NC(=O)[C@H](CC(=O)O)NC(=O)CNC(=O)CNC(=O)CNC(=O)[C@H](CCCNC(=N)N)NC(=O)CNC(=O)CNC(=O)CNC(=O)[C@H](CCC(N)=O)NC1=O) [cLac-33G]” reads “Y”; that for “WBipGHIQGRGGGD (cyclo(W[Bip]GHIQGRGGGD); SMILES CC[C@H](C)[C@@H]1NC(=O)[C@H](Cc2c[nH]cn2)NC(=O)CNC(=O)[C@H](Cc2ccc(-c3ccccc3)cc2)NC(=O)[C@H](Cc2c[nH]c3ccccc23)NC(=O)[C@H](CC(=O)O)NC(=O)CNC(=O)CNC(=O)CNC(=O)[C@H](CCCNC(=N)N)NC(=O)CNC(=O)[C@H](CCC(N)=O)NC1=O) [cLac-13G]”, “Y”.
With “WBipGHIQGGRGGGD (cyclo(W[Bip]GHIQGGRGGGD); SMILES CC[C@H](C)[C@@H]1NC(=O)[C@H](Cc2c[nH]cn2)NC(=O)CNC(=O)[C@H](Cc2ccc(-c3ccccc3)cc2)NC(=O)[C@H](Cc2c[nH]c3ccccc23)NC(=O)[C@H](CC(=O)O)NC(=O)CNC(=O)CNC(=O)CNC(=O)[C@H](CCCNC(=N)N)NC(=O)CNC(=O)CNC(=O)[C@H](CCC(N)=O)NC1=O) [cLac-2, biphenylalanine replaces Phe]”, in assay [1] (FRET, PC-alone liposomes), the “binding to PC-alone liposomes” value was “no binding”. Further, in assay [1] (FRET), the “binding to PC/PS liposomes” value is on record as “clearly elicits a sensitized dansyl emission; also recorded: only with PC/PS liposomes”. Moreover, the “binding to cholesterol-containing membranes without PS” value in assay [1] (cholesterol-containing PC liposomes) is listed as “non-specific binding”. In assay [1], the “PS-selective binding” value is recorded as “able to differentiate PS-containing vesicles from PS-absent vesicles” and the Liposome binding assay result is given as “Y”. For the same molecule, the “dansyl fluorescence of vesicles containing 20% PS relative to 5% PS” value in assay [1] (peptide at saturating concentration 50 μM) is recorded as “close to four-fold”. Also, the Kd in assay [1] (titration with PC/PS vesicles, sensitized dansyl emission, read-out: apparent dissociation constant (Kd)) was ~15 µM.
As for “cLac-22G: cLac variant with di-Gly in linker II, SEQ. ID. NO. 42 (WFGHIQGGRGGD; cyclic)”, the “dansyl emission / membrane binding compared among linker-length variants” value in assay [1] (Trp-to-dansyl FRET, Gly number of linker II varied 2 to 5, or linker I varied) is “lowest”. Besides, in assay [1], the Liposome binding assay entry is “N”.
Consider WBipGHIQGppGRGGAD [cLac-PPG-2], for which the “binding to PC/PS liposomes” value in assay [1] (FRET) is given as “selective binding”. For the same molecule, in assay [1], the “PS-selective binding” value is on record as “selective binding” and the Liposome binding assay entry is given as “Y”. Besides, in assay [2], the Cell imaging entry is given as “Y”.

B1: FITC-labeled annexin V: naturally occurring 36 kDa PS-binding protein, FITC-labeled (protein, UniProt P08758 2-320, looked up)
Annexin A5: AQVLRGTVTDFPGFDERADAETLRKAMKGLGTDEESILTLLTSRSNAQRQEISAAFKTLFGRDLLDDLKSELTGKFEKLIVALMKPSRLYDAYELKHALKGAGTNEKVLTEIIASRTPEELRAIKQVYEEEYGSSLEDDVVGDTSGYYQRMLVVLLQANRDPDAGIDEAQVEQDAQALFQAGELKWGTDEEKFITIFGTRSVSHLRKVFDKYMTISGFQIEETIDRETSGNLEQLLLAVVKSIRSIPAYLAETLYYAMKGAGTDDHTLIRVMVSRSEIDLFNIRKEFRKNFATSLYSMIKGDTSGDYKKALLLLCGEDD
modifications: FITC label
Turning to B1, the “staining of apoptotic cells” value in assay [2] (0.1 μM STS or CPT for 4 hours, early apoptotic cells) was “stained”.
